These results are taken from paper PMC4403932 (Journal of Medicinal Chemistry, 2015).

Structures are written as SMILES. Read-outs that look alike come from different tables or passages of the source.

For data set [1], the target named is T1, BRD3(2) (Homo sapiens, UniProt Q15059).
T1 construct: made in house
Description: Protein stability (thermal) shift assay, BRD3(2). The note with it: compound 10 μM, protein 2 μM; average of triplicate. Format: binding.

Data set [2] deals with T2, BRD3(1) (Homo sapiens, UniProt Q15059).
T2 construct: Fragments were tested in a thermal shift assay against bromodomains of the BET subfamily; made in house
Briefly: Protein stability (thermal) shift assay, BRD3(1). The note with it: compound 10 μM, protein 2 μM; average of triplicate. In kind it is binding.

For data set [3], the target named is T3, BRDT(2) (Homo sapiens, UniProt Q58F21).
T3 construct: made in house
Briefly: Protein stability (thermal) shift assay, BRDT(2). In kind it is binding. To be noted: compound 10 μM, protein 2 μM; average of triplicate; read-out: ΔTm Shift, BRDT(2).

Data set [4] deals with T4, PB1(5) (Homo sapiens, UniProt Q86U86).
T4 construct: made in house
Briefly: Protein stability (thermal) shift assay, PB1(5). In kind it is binding. To be noted: compound 10 μM, protein 2 μM; average of triplicate.

Data set [5] has as its target T5, BRD9 (Homo sapiens, UniProt Q9H8M2).
T5 construct: made in house
T5 sequence (Q9H8M2 136-240 limits assumed): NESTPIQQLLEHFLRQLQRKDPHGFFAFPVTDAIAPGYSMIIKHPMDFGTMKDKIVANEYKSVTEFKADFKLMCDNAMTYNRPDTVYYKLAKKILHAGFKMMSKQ
Briefly: Isothermal titration calorimetry, BRD9. In kind it is binding. The note with it: for LE (ligand efficiency): LE = ΔG/N, N number of non-hydrogen atoms. The method, then: Experiments were carried out on an ITC200 titration microcalorimeter from MicroCal, LLC (GE Healthcare) equipped with a Washing module, with a cell volume of 0.2003 mL, and a 40 μL microsyringe. Experiments were carried out at 15 °C while stirring at 1000 rpm, in ITC buffer (50 mM HEPES, pH 7.5 (at 25 °C), 150 mM NaCl). The microsyringe was loaded with a solution of the protein sample (300−740 μM protein for BRD9 and BRD4(1), respectively, in ITC buffer) and was carefully inserted into the calorimetric cell which was filled with an amount of the ligand (0.2 mL, 20–25 μM in ITC buffer). The system was first allowed to equilibrate until the cell temperature reached 15 °C, and an additional delay of 60 s was applied. All titrations were conducted using an initial control injection of 0.3 μL followed by 38 identical injections of 1 μL with a duration of 2 s (per injection) and a spacing of 120 s between injections. The titration experiments were designed in such a fashion as to ensure complete saturation of the proteins before the final injection. The heat of dilution for the proteins was independent of their concentration and corresponded to the heat observed from the last injection, following saturation of ligand binding, thus facilitating the estimation of the baseline of each titration from the last injection. The collected data were corrected for protein heats of dilution (measured on separate experiments by titrating the proteins into ITC buffer) and deconvoluted using the MicroCal Origin software supplied with the instrument to yield enthalpies of binding (ΔH) and binding constants (KB) in the same fashion as that previously described in detail by Wiseman and co-workers.[66] Thermodynamic parameters were calculated using the basic equation of thermodynamics (ΔG = ΔH – TΔS = −RT ln KB, where ΔG, ΔH, and ΔS are the changes in free energy, enthalpy, and entropy of binding, respectively). In all cases a single binding site model was employed, supplied with the MicroCal Origin software package.
A general note: In ITC the heat of successive injections is recorded.

Data set [6] addresses T6, BRD4(2) (Homo sapiens, UniProt O60885).
T6 construct: made in house
Description: Protein stability (thermal) shift assay, BRD4(2). The note with it: compound 10 μM, protein 2 μM; average of triplicate. In kind it is binding.

Data set [7] deals with T7, CREBBP (Homo sapiens, UniProt Q92793).
T7 construct: small thermal shits (1.0–1.3 °C) for the bromodomain of CREBBP; made in house
Description: Protein stability (thermal) shift assay, CREBBP. In kind it is binding. To be noted: compound 10 μM, protein 2 μM; average of triplicate; read-out: ΔTm Shift, CREBBP.

The target of data set [8] is T8, BRD2(2) (Homo sapiens, UniProt P25440).
T8 construct: made in house
Briefly: Protein stability (thermal) shift assay, BRD2(2). Format: binding. To be noted: compound 10 μM, protein 2 μM; average of triplicate.

Data set [9] deals with human bromodomains (panel). Description: Protein stability (thermal) shift assay, whole panel of human bromodomains. In kind it is binding. To be noted: 10 μM compound. The method, then: Thermal melting experiments were carried out using an Mx3005p real time PCR machine (Stratagene). Proteins were buffered in 10 mM HEPES, pH 7.5, 500 mM NaCl and assayed in a 96-well plate at a final concentration of 2 μM in 20 μL volume. Compounds were added at a final concentration of 10 or 100 μM. SYPRO Orange (Molecular Probes) was added as a fluorescence probe at a dilution of 1 in 1000. Excitation and emission filters for the SYPRO-Orange dye were set to 465 and 590 nm, respectively. The temperature was raised with a step of 3 °C per minute from 25 to 96 °C, and fluorescence readings were taken at each interval. The temperature dependence of the fluorescence during the protein denaturation process was approximated by the equation [drawing 1] where ΔuG is the difference in unfolding free energy between the folded and unfolded state, R is the gas constant, and yF and yU are the fluorescence intensity of the probe in the presence of completely folded and unfolded protein, respectively.[65] The baselines of the denatured and native states were approximated by a linear fit. The observed temperature shifts, ΔTm^obs, were recorded as the difference between the transition midpoints of sample and reference wells containing protein without ligand in the same plate and determined by nonlinear least-squares fit. Temperature shifts (ΔTm^obs) for three independent measurements per proteins/compound are summarized in Supporting Information Table S1.

Data set [10] addresses T9, BRD2(1) (Homo sapiens, UniProt P25440).
T9 construct: Fragments were tested in a thermal shift assay against bromodomains of the BET subfamily; made in house
Description: Protein stability (thermal) shift assay, BRD2(1). In kind it is binding. The note with it: compound 10 μM, protein 2 μM; average of triplicate.

Data set [11] concerns the target T10, BAZ2B (Homo sapiens, UniProt Q9UIF8).
T10 construct: representative BRDs from other structural subfamilies (family I, PCAF); family III, CREBBP; family IV, BRD9; family V, BAZ2B; made in house
T10 sequence (Q9UIF8 2060-2164 limits assumed): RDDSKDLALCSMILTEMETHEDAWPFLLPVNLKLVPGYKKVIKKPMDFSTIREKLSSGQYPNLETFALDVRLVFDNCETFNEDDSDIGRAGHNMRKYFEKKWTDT
Briefly: Protein stability (thermal) shift assay, BAZ2B. Format: binding. To be noted: compound 10 μM, protein 2 μM; average of triplicate; read-out: ΔTm Shift, BAZ2BA.

Data set [12] concerns the target T11, BRD4(1) (Homo sapiens, UniProt O60885).
T11 construct: made in house
Description: Protein stability (thermal) shift assay, BRD4(1). In kind it is binding. To be noted: compound 10 μM, protein 2 μM; average of triplicate; read-out: ΔTm Shift, BRD4(1).

The target in data set [13] is T5, BRD9. Briefly: Protein stability (thermal) shift assay, BRD9. In kind it is binding. To be noted: compound 10 μM, protein 2 μM; average of triplicate; read-out: ΔTm Shift, BRD9.
The target of data set [14] is T12, BRDT(1) (Homo sapiens, UniProt Q58F21).
T12 construct: made in house
Description: Protein stability (thermal) shift assay, BRDT(1). The note with it: compound 10 μM, protein 2 μM; average of triplicate. Format: binding.

The target of data set [15] is T13, PCAF (Homo sapiens, UniProt Q92831).
T13 construct: representative BRDs from other structural subfamilies (family I, PCAF); made in house
T13 sequence (Q92831 723-827 limits assumed): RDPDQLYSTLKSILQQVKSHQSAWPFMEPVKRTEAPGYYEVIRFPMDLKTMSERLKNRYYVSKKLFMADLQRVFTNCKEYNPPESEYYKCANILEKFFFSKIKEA
Description: Protein stability (thermal) shift assay, PCAF. Format: binding. To be noted: compound 10 μM, protein 2 μM; average of triplicate.

Data set [16] in a line: Solubility (observation in words). In kind it is physicochemical.
Setting [17] is: ITC, 50 mM HEPES pH 7.5, 150 mM NaCl, 15 °C, reverse titration, triplicate, read-out: KD.

T7 sequence (Q92793 1085-1192 limits assumed): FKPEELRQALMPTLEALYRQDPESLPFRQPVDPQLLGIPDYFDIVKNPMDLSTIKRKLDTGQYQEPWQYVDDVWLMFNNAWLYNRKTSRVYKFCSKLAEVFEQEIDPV
T2 sequence (Q15059 34-140 limits assumed): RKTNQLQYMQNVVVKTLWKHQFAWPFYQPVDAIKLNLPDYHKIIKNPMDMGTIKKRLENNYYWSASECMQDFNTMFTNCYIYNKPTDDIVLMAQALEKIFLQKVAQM
T9 sequence (P25440 74-180 limits assumed): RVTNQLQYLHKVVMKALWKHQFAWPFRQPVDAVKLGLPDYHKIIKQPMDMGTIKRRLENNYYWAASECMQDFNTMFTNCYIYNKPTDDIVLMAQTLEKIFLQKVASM
T4 sequence (Q86U86 653-763 limits assumed): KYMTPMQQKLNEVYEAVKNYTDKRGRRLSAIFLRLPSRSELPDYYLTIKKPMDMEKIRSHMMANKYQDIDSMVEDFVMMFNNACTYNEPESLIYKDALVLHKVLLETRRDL
T8 sequence (P25440 344-453 limits assumed): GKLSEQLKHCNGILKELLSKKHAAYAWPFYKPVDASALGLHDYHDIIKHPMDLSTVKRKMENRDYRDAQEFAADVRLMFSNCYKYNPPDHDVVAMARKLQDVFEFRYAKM
T1 sequence (Q15059 306-415 limits assumed): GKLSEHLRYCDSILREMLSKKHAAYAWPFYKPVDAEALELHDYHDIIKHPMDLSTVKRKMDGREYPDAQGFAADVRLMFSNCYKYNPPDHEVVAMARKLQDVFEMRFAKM

In the case of `CCCCOc1cc(Br)cc(-c2nc(N)nc3c2ncn3C)c1` [Compound 5b, 2-Amino-6-(3-bromo-5-butoxyphenyl)-9-methylpurine], the ΔTm at 10 µM turned out to be 0.5 °C in data set [1]; 0.227 °C in data set [2]; 1 °C in [3]; 0.5 °C in data set [4]; 0.373 °C in data set [6]; 1.3 °C in data set [7]. In addition, the ΔTm at 10 µM was 0.163 °C in data set [8]; -0.153 °C in data set [10]; 0.217 °C in data set [11]; 0.633 °C in data set [12]; -0.56 °C in [13]; 0.45 °C in data set [14]. Moreover, the ΔTm at 10 µM in data set [15] came to 0.9 °C. In [5] (ITC, 50 mM HEPES pH 7.5, 150 mM NaCl, 15 °C, reverse titration, triplicate), the KD entry is reported as “no binding/weak”. Besides, the “binding to the bromodomain panel in the ΔTm assay (in words)” value (shortened to “binding … in the ΔTm assay (in words)”) in data set [9] was “very weak or no binding”.

As to `COc1ccc(Br)cc1-c1nc(Cl)nc2[nH]cnc12` [Compound 8a, 6-(5-Bromo-2-methoxyphenyl)-2-chloro-9H-purine], the ΔTm at 10 µM was -0.00857 °C in data set [1]; 1 °C in data set [2]; -0.164 °C in [3]; 1.3 °C in data set [4]; 0.3 °C in [6]; 2.5 °C in data set [7]. The ΔTm at 10 µM in data set [8] was -0.564 °C; in data set [10], 0.8 °C; in data set [11], -0.7 °C; in data set [12], 1.3 °C; in data set [13], 0.9 °C; in data set [14], -0.541 °C. In data set [15], the ΔTm at 10 µM was -0.4 °C. In addition, the Kd in data set [5] (setting [17]) came out at 7.87 ± 0.258 µM; in data set [5] (ITC, read-out: dissociation constant) it was 7.9 µM. In [5] (ITC, 15 °C), the TΔS entry is given as “–1.57 kcal/mol”. In [5] (ITC, 15 °C), the ΔG entry is listed as “–6.73 kcal/mol”. Moreover, the “N (stoichiometry)” value in data set [5] (ITC, 15 °C, reverse titration) came out at 1.06 ± 0.014. Moreover, the ΔHobs result in data set [5] (ITC, 15 °C, reverse titration) was “–8.30 ± 0.15 kcal/mol”. Further, the “LE (ligand efficiency)” value in data set [5] turned out to be 0.35. The “binding … in the ΔTm assay (in words)” value in [9] is reported as “loss of affinity toward all BRDs”.

On to `COc1ccc(Cl)cc1-c1nc(O)nc2[nH]cnc12` [Compound 8e, 6-(5-Chloro-2-methoxyphenyl)-2-hydroxy-9H-purine], for which the ΔTm at 10 µM in [1] is 1.3 °C; in [2], 1.9 °C; in [3] it was 1.8 °C; in [4], 1.7 °C; in data set [6] it was 1.3 °C; in [7], 1 °C. Further, the ΔTm at 10 µM in [8] was 1.2 °C; in [10] it was 2.1 °C; in data set [11] it was 1.2 °C; in data set [12], 2.3 °C; in data set [13], -0.2 °C; in [14], 1.5 °C. For the same compound, the ΔTm at 10 µM in [15] was determined as 2 °C. For the same compound, the Kd in data set [5] (setting [17]) stood at 7.58 ± 0.365 µM. The same compound returned a TΔS in data set [5] (ITC, 15 °C) of 1.40 kcal/mol. In addition, in [5] (ITC, 15 °C), the ΔG result is recorded as “–6.75 kcal/mol”. Besides, the “N (stoichiometry)” value in data set [5] (ITC, 15 °C, reverse titration) is 1.05 ± 0.013. In addition, the ΔHobs entry in data set [5] (ITC, 15 °C, reverse titration) is listed as “–5.35 ± 0.09 kcal/mol”. Also, in data set [5], the “LE (ligand efficiency)” value is listed as 0.36. Moreover, the “binding … in the ΔTm assay (in words)” value in data set [9] is recorded as “promiscuously bound to most bromodomains”.

As for `COc1ccc(Br)cc1-c1ncnc2[nH]c(C)nc12` [Compound 9a, 6-(5-Bromo-2-methoxyphenyl)-8-methyl-9H-purine], the “solubility (in words)” value in [16] is recorded as “low solubility”.

Turning to `Nc1nc(-c2cccc3c2Sc2ccccc2S3)c2nc[nH]c2n1` [Compound 10, 2-Amino-6-thianthrenyl-9H-purine], the “solubility (in words)” value in [16] is “low solubility”. The ΔTm at 10 µM in data set [13] came to 0.158 °C.
